Test results from patent EP0336230B1, “Cyclic peptide antagonists of Substance P and Substance K” (FUJISAWA PHARMACEUTICAL CO., LTD., priority 1988, dated 1989).
Numbered stars: 1 amine (or outer) side, 2 acyl side, 3 side chain; on linkers, the order of the positions; unused ones are H or OH. Bridge positions count the residues as written; N and C are the ends. Square brackets hold non-standard residues; d marks the D form. Peptide text beside a SMILES is read from it. * marks the point of attachment. Cinnamoyl(2-(1Z-pentenyl)) = CCC/C=C\c1ccccc1/C=C/C(=O)*; X3 = CC(=O)Oc1ccc(/C=C(\C(=O)[*:2])N(C)[*:1])cc1; X1 = CN(/C(=C/c1ccc(O)cc1)C(=O)[*:2])[*:1]; aThr = C[C@H](O)[C@H](N)C(=O)O; X2 = CCCCCc1ccccc1CCC(=O)*

Legend:
[1] = Solubility in solvents (physical and chemical properties); type: physicochemical
Procedure: The obtained product was triturated from diethyl ether to give triacetyl-WS-9326A (332 mg) as a colorless powder. Physical and chemical properties of the triacetyl-WS-9326A are as follows. […] (23)/(D) [formula] : -122° (C=1.0, MeOH) (6) Ultraviolet Absorption Spectrum : λ (MeOH)/(max) [formula] = 283 nm (ε=32,000) (7) Molecular Formula : C60H74N8O16 (8) Elemental Analysis : […]

[2] = target: T1, specific [^3H] substance P binding to guinea pig lung membranes (Cavia porcellus, UniProt P30547); test: ^3H-substance P binding to preparative membranes (guinea pig lung); conditions: ^3H-Substance P 1nM, 4°C, 30 minutes, read-out: IC50 (M), displacement of specific [^3H] substance P binding
T1 construct: from tissue; host or cells: guinea pig trachea and lung, crude membrane fraction
T1 sequence (P30547 whole entry): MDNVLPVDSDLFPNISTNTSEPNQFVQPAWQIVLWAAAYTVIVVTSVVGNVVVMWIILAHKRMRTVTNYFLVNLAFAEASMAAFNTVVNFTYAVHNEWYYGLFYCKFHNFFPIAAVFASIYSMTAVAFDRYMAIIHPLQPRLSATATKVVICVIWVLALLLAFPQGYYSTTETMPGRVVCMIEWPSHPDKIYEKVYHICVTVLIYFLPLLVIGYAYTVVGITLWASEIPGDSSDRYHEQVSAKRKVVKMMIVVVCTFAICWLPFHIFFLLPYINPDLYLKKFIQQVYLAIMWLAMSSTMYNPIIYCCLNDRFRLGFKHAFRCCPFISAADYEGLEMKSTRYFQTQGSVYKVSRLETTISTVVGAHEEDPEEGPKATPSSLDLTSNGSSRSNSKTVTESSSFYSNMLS
Procedure: (a) Crude membrane preparation
Male albino Hartley strain guinea pigs (600 g) were sacrificed by decapitation. The trachea and lungs were removed, and stored at -80°C until use. These tissues (150 g) were thawed and homogenized in 500 ml buffer (0.25 M sucrose, 50 mM Tris-HCℓ pH 7.5, 0.1 mM EDTA) with a compact mixer (Matsuden MJ-761). The tissue was homogenized with a Ultra-Disperser (Yamato MODEL LK-21) at a setting of maximum range for 10-s at 10-s intervals with cooling between homogenizations (total homogenization's time : 60 seconds). The homogenate was centrifuged (900 x g for 10 min.) to remove tissue clumps and the supernatant centrifuged at 14000 x g for 20 min. to yield pellets which were referred to as crude membrane fractions. The pellets were resuspended in Medium I, homogenized with a teflon homogenizer and centrifuged at 14000 x g for 20 min. The pellets were stored at -20°C.
(b) ^3H-substance P binding to preparative membranes
^3H-Substance P (1nM, New England Nuclear) was incubated with 50 µℓ of the membrane preparation in medium I at 4°C for 30 minutes in a final volume of 250 µℓ. […] The radioactivity was counted in 3 ml of Aquazol-2 in Packard sintillation counter (Packard TRI-CARB 4530).

| Solubility ([1]; chloroform) | Solubility ([1]; diethyl ether) | Solubility ([1]; dimethyl sulfoxide) | Solubility ([1]; methanol) | Solubility ([1]; n-hexane) | IC50 [2] | SMILES |
| --- | --- | --- | --- | --- | --- | --- |
| Sparingly Soluble | Sparingly Soluble | Soluble | Soluble | Insoluble |  | CCC/C=C\c1ccccc1/C=C/C(=O)N[C@@H]1C(=O)N(C)/C(=C/c2ccc(OC(C)=O)cc2)C(=O)N[C@@H](CC(C)C)C(=O)N[C@H](Cc2ccccc2)C(=O)N[C@@H]([C@H](C)OC(C)=O)C(=O)N[C@@H](CC(N)=O)C(=O)N[C@@H](COC(C)=O)C(=O)O[C@@H]1C [triacetyl-WS-9326A] ({Cinnamoyl(2-(1Z-pentenyl))}-T[X3]L[dF][aThr](Ac)NS(Ac); ester 1-C) |
|  |  |  |  |  | 4.2e-07 M | CCCCCc1ccccc1CCC(=O)N[C@@H]1C(=O)N(C)/C(=C/c2ccc(O)cc2)C(=O)N[C@@H](CC(C)C)C(=O)N[C@H](Cc2ccccc2)C(=O)N[C@@H]([C@H](C)O)C(=O)N[C@@H](CC(N)=O)C(=O)N[C@@H](CO)C(=O)O[C@@H]1C [Tetrahydro-WS-9326A] (X2-T[X1]L[dF][aThr]NS; ester 1-C) |
